#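 Step 1: Grow cells in 96-well plates. Step 2: Expose to compound for 48 hours at 5 concentrations. Step 3: Interpolate endpoints linearly; if unreached, use highest concentration. TGI denotes the concentration required for complete inhibition of growth.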
# How the values were obtained:
# Experiment in all cases: growth of human tumour cells (NCI), 48 h
# [1] = test system: HOP-62 NSCLC
# [2] = test system: HS 578T breast
# [3] = test system: NCI-H23 lung
# [4] = test system: MDA-N
# [5] = test system: MALME-3M melanoma
# [6] = test system: MDA-MB-435
# [7] = test system: SK-OV-3 ovarian
# [8] = test system: PC-3 prostate
# [9] = test system: A549 NSCLC
# [10] = test system: SNB-75 CNS
# [11] = test system: SK-MEL-28 melanoma
# [12] = test system: SK-MEL-5 melanoma
# [13] = test system: SR leukemia
# [14] = test system: OVCAR-3 ovarian
# [15] = test system: MCF7 breast
# [16] = test system: UO-31 renal
# [17] = test system: NCI/ADR-RES ovarian
# [18] = test system: OVCAR-8 ovarian
# [19] = test system: COLO 205 colon
# [20] = test system: UACC-257 melanoma
# [21] = test system: HOP-92 NSCLC
# [22] = test system: RPMI-8226 leukemia
# [23] = test system: RXF 393 renal
# [24] = test system: SF-539 CNS
# [25] = test system: TK-10 renal
# [26] = test system: BT-549 breast
# [27] = test system: SW-620 colon
# [28] = test system: HT29 colon
# [29] = test system: OVCAR-4 ovarian
# [30] = test system: EKVX NSCLC
# [31] = test system: NCI-H522 lung
# [32] = test system: CCRF-CEM leukemia
# [33] = test system: 786-0 renal
# [34] = test system: UACC-62 melanoma
# [35] = test system: M14 melanoma
# [36] = test system: A498 renal
# [37] = test system: DU-145 prostate
# [38] = test system: SF-268 CNS
# [39] = test system: MDA-MB-231 breast
# [40] = test system: HL-60(TB) leukemia
# [41] = test system: ACHN renal
# [42] = test system: IGROV1 ovarian
# [43] = test system: MOLT-4 leukemia
# [44] = test system: NCI-H226 lung
# [45] = test system: HCT-15 colon
# [46] = test system: U251 CNS
# [47] = test system: SN12C renal
# [48] = test system: HCT-116 colon
# [49] = test system: HCC-2998 colon
# [50] = test system: SNB-19 CNS
# [51] = test system: T-47D breast
# [52] = test system: SF-295 CNS
# [53] = test system: LOX IMVI melanoma
# [54] = test system: KM12 colon
# [55] = test system: K-562 leukemia
# [56] = test system: NCI-H460 lung
# [57] = test system: CAKI-1 renal
# [58] = test system: SK-MEL-2 melanoma
# [59] = test system: OVCAR-5 ovarian
# [60] = test system: KM20L2 colon
# [61] = test system: SNB-78 CNS
# [62] = test system: M19-MEL melanoma
# [63] = test system: DMS 273 small cell lung
# [64] = test system: DMS 114 small cell lung
compound,measurement,setting,value
CCC(/C=C/c1ccccc1)=N\NC(=S)N/N=C(/C=C/c1ccccc1)CC,TGI,[1],> 100 µM
same,TGI,[2],> 100 µM
same,TGI,[3],> 100 µM
same,TGI,[4],> 100 µM
same,TGI,[5],> 100 µM
same,TGI,[6],> 100 µM
same,TGI,[7],> 100 µM
same,TGI,[8],> 100 µM
same,TGI,[9],> 100 µM
same,TGI,[10],> 100 µM
same,TGI,[11],> 100 µM
same,TGI,[12],> 100 µM
same,TGI,[13],91.3 µM
same,TGI,[14],> 100 µM
same,TGI,[15],> 100 µM
same,TGI,[16],> 100 µM
same,TGI,[17],> 100 µM
same,TGI,[18],45.9 µM
same,TGI,[19],> 100 µM
same,TGI,[20],> 100 µM
same,TGI,[21],> 100 µM
same,TGI,[22],> 100 µM
same,TGI,[23],> 100 µM
same,TGI,[24],91.6 µM
same,TGI,[25],> 100 µM
same,TGI,[26],> 100 µM
same,TGI,[27],> 100 µM
same,TGI,[28],> 100 µM
same,TGI,[29],> 100 µM
same,TGI,[30],> 100 µM
same,TGI,[31],> 100 µM
same,TGI,[32],> 100 µM
same,TGI,[33],> 100 µM
same,TGI,[34],> 100 µM
same,TGI,[35],> 100 µM
same,TGI,[36],59.8 µM
same,TGI,[37],> 100 µM
same,TGI,[38],> 100 µM
same,TGI,[39],> 100 µM
same,TGI,[40],62.7 µM
same,TGI,[41],> 100 µM
same,TGI,[42],> 100 µM
same,TGI,[43],> 100 µM
same,TGI,[44],> 100 µM
same,TGI,[45],> 100 µM
same,TGI,[46],> 100 µM
same,TGI,[47],> 100 µM
same,TGI,[48],> 100 µM
same,TGI,[49],> 100 µM
same,TGI,[50],> 100 µM
same,TGI,[51],> 100 µM
same,TGI,[52],> 100 µM
same,TGI,[53],> 100 µM
same,TGI,[54],> 100 µM
same,TGI,[55],98.8 µM
same,TGI,[56],> 100 µM
same,TGI,[57],> 100 µM
CC1(C)N=C(N)N=C(N)N1c1ccc(CCCCc2ccc(Cl)cc2Cl)cc1,TGI,[1],10.6 µM
same,TGI,[2],22.9 µM
same,TGI,[3],11.9 µM
same,TGI,[4],2.67 µM
same,TGI,[5],16.8 µM
same,TGI,[6],13.9 µM
same,TGI,[7],24.7 µM
same,TGI,[8],3.27 µM
same,TGI,[9],14.7 µM
same,TGI,[11],19.2 µM
same,TGI,[12],2.84 µM
same,TGI,[13],60.4 µM
same,TGI,[14],5.5 µM
same,TGI,[15],11.8 µM
same,TGI,[16],43.9 µM
same,TGI,[17],> 100 µM
same,TGI,[18],16.1 µM
same,TGI,[19],4.88 µM
same,TGI,[20],8.65 µM
same,TGI,[21],18 µM
same,TGI,[22],19.2 µM
same,TGI,[23],20.4 µM
same,TGI,[24],8.74 µM
same,TGI,[25],15.7 µM
same,TGI,[58],13.5 µM
same,TGI,[26],6.3 µM
same,TGI,[27],12.9 µM
same,TGI,[28],13 µM
same,TGI,[29],13.5 µM
same,TGI,[30],45.1 µM
same,TGI,[31],14.3 µM
same,TGI,[32],76 µM
same,TGI,[33],15.3 µM
same,TGI,[35],14 µM
same,TGI,[36],28.8 µM
same,TGI,[37],17.3 µM
same,TGI,[38],15.9 µM
same,TGI,[59],20.9 µM
same,TGI,[39],16.6 µM
same,TGI,[40],> 100 µM
same,TGI,[41],16.1 µM
same,TGI,[42],10 µM
same,TGI,[43],> 100 µM
same,TGI,[45],> 100 µM
same,TGI,[46],15.2 µM
same,TGI,[47],12.7 µM
same,TGI,[48],15.1 µM
same,TGI,[49],17.4 µM
same,TGI,[50],11 µM
same,TGI,[51],23.9 µM
same,TGI,[52],22 µM
same,TGI,[53],16.4 µM
same,TGI,[54],2.19 µM
same,TGI,[55],> 100 µM
same,TGI,[56],2.48 µM
same,TGI,[57],9.08 µM
COc1ccc(C=NC23CC4CC(CC(C4)C2)C3)cc1,TGI,[1],> 100 µM
same,TGI,[3],> 100 µM
same,TGI,[60],> 100 µM
same,TGI,[5],> 100 µM
same,TGI,[7],> 100 µM
same,TGI,[9],> 100 µM
same,TGI,[10],> 100 µM
same,TGI,[11],> 100 µM
same,TGI,[12],> 100 µM
same,TGI,[13],> 100 µM
same,TGI,[14],> 100 µM
same,TGI,[16],> 100 µM
same,TGI,[18],> 100 µM
same,TGI,[19],> 10 µM
same,TGI,[20],> 100 µM
same,TGI,[22],> 100 µM
same,TGI,[23],> 100 µM
same,TGI,[24],> 100 µM
same,TGI,[25],> 100 µM
same,TGI,[61],> 100 µM
same,TGI,[62],> 10 µM
same,TGI,[58],> 100 µM
same,TGI,[63],> 10 µM
same,TGI,[27],> 100 µM
same,TGI,[28],> 100 µM
same,TGI,[29],> 100 µM
same,TGI,[30],> 100 µM
same,TGI,[31],> 100 µM
same,TGI,[32],> 100 µM
same,TGI,[33],> 100 µM
same,TGI,[34],> 100 µM
same,TGI,[35],> 100 µM
same,TGI,[36],> 100 µM
same,TGI,[38],> 100 µM
same,TGI,[59],> 100 µM
same,TGI,[40],> 100 µM
same,TGI,[41],> 100 µM
same,TGI,[42],> 100 µM
same,TGI,[64],> 100 µM
same,TGI,[43],> 100 µM
same,TGI,[44],> 100 µM
same,TGI,[45],> 100 µM
same,TGI,[46],> 100 µM
same,TGI,[47],> 100 µM
same,TGI,[48],> 100 µM
same,TGI,[49],> 100 µM
same,TGI,[50],> 100 µM
same,TGI,[52],> 100 µM
same,TGI,[53],> 100 µM
same,TGI,[54],> 100 µM
same,TGI,[55],> 100 µM
same,TGI,[56],> 100 µM
same,TGI,[57],> 100 µM
CC1C=C(NCC2(CO)CCC2)NC(N)=N1 (stereo not drawn),TGI,[1],> 100 µM
same,TGI,[2],> 100 µM
same,TGI,[3],> 100 µM
same,TGI,[4],> 100 µM
same,TGI,[5],> 100 µM
same,TGI,[6],> 100 µM
same,TGI,[7],> 100 µM
same,TGI,[8],> 100 µM
same,TGI,[9],> 100 µM
same,TGI,[10],> 100 µM
same,TGI,[11],> 100 µM
same,TGI,[12],> 100 µM
same,TGI,[13],> 100 µM
same,TGI,[14],> 100 µM
same,TGI,[15],> 100 µM
same,TGI,[16],> 100 µM
same,TGI,[17],> 100 µM
same,TGI,[18],> 100 µM
same,TGI,[19],> 100 µM
same,TGI,[20],> 100 µM
same,TGI,[21],> 100 µM
same,TGI,[22],> 100 µM
same,TGI,[23],> 100 µM
same,TGI,[58],> 100 µM
same,TGI,[26],> 100 µM
same,TGI,[27],> 100 µM
same,TGI,[28],> 100 µM
same,TGI,[29],> 100 µM
same,TGI,[30],> 100 µM
same,TGI,[31],> 100 µM
same,TGI,[32],> 100 µM
same,TGI,[33],> 100 µM
same,TGI,[34],> 100 µM
same,TGI,[35],> 100 µM
same,TGI,[36],> 100 µM
same,TGI,[37],> 100 µM
same,TGI,[38],> 100 µM
same,TGI,[59],> 100 µM
same,TGI,[39],> 100 µM
same,TGI,[40],> 100 µM
same,TGI,[41],> 100 µM
same,TGI,[42],> 100 µM
same,TGI,[43],> 100 µM
same,TGI,[44],> 100 µM
same,TGI,[45],> 100 µM
same,TGI,[46],> 100 µM
same,TGI,[47],> 100 µM
same,TGI,[48],> 100 µM
same,TGI,[49],> 100 µM
same,TGI,[50],> 100 µM
same,TGI,[51],> 100 µM
same,TGI,[52],> 100 µM
same,TGI,[53],> 100 µM
same,TGI,[54],> 100 µM
same,TGI,[55],> 100 µM
same,TGI,[56],> 100 µM
same,TGI,[57],> 100 µM

# Source: PubChem BioAssay (NCI)
